Here are results for two compounds from article PMC11898701, “Evaluating Therapeutic Efficacy of the Vascular Disrupting Agent OXi8007 Against Kidney Cancer in Mice” (Cancers, 2025).

The test system of data set [1] is subcutaneous Renca tumors. Further details: method as in PMID 33954115. The settings on record: 10 mg/kg, day 14; cited from earlier work.
The test system of data set [2] is orthotopic Renca-luc tumors. The data set can be described thus: Long-term therapy with OXi8007 and/or cabozantinib. It is filed as in vivo, mouse. As to the method:
(§1) OXi8007, synthesized by the Pinney Laboratory using published procedures, was dissolved in saline, verified to be in the pH range 7.3 to 7.5, and dosed at 250 mg/kg (IP). Cabozantinib (in PEG400 and ultrapure H2O (Milli-Q)) was administered at 3 mg/kg by oral gavage. Anti-PD-1 (10 mg/kg, Bio X Cell, Lebanon, NH, USA) and anti-CTLA-4 (5 mg/kg, Bio X Cell, Lebanon, NH) solutions were administered (IP) on the day before OXi8007 […].
We evaluated the longitudinal effects of OXi8007 alone and in combination with drugs currently favored for treating kidney cancer. For Renca-luc tumor-bearing mice, BLI was performed at least once a week to estimate tumor size, and mice were weighed weekly to adjust the dose as needed. Two treatment cohorts examined syngeneic orthotopic Renca-luc tumors in male BALB/c mice. Treatment started when the tumors reached about 1 × 10^6 photons/s peak total flux on BLI. The first cohort examined OXi8007 with cabozantinib. Mice were divided into four groups. Mice were assigned to groups as soon as there were sufficient to add the same numbers of animals to each group. The specific assignment was defined using the random number function in Excel. […] The second cohort was treated with CKIs and OXi8007 using four groups: Group 5 (OXi8007 + anti-PD-1 (10 mg/kg) + anti-CTLA-4 (5 mg/kg); n = 4), Group 6 (saline + anti-PD-1+ anti-CTLA-4; n = 3), Group 7 (saline + anti-PD-1; n = 3), and Group 8 (saline + anti-CTLA-4; n = 4). CKI antibodies were administered thrice weekly (M, W, F) for the first two weeks after the first treatment with OXi8007, which was administered twice weekly. […] Initial tumor growth was confirmed by palpation, and the mice were assigned to groups such that the first mouse with a confirmed tumor was assigned to Group 5, next to Group 6, etc., ensuring that all groups had both faster- and slower-growing tumors. […] Tumor size (BLI signal) and mouse body weights were compared using an ANOVA and multiple comparisons at a significance level of p < 0.05. Kaplan–Meier survival curves were compared using a non-parametric log-rank test using SAS software (SAS Institute Inc., SAS Viya for learners 4, Cary, NC, USA).

Data set [3] relates to orthotopic XP258 human tumor xenografts. Description: Long-term therapy of XP258 human tumor xenografts. Type of data set: in vivo, mouse. The settings on record: XP258 in NOD/SCID mice; OXi8007 250 mg/kg IP twice weekly, cabozantinib 3 mg/kg oral daily.
Excerpt: The animal procedures were approved by the UT Southwestern Medical Center Institutional Animal Care and Use Committee under APNs 2017-102152 and 2018-102344-CORE. Renca-luc orthotopic tumors were induced by inserting tumor tissue (~1 mm^3) harvested from a donor mouse into the right kidney of syngeneic BALB/c mice (age 8 weeks, male and female; Envigo, Indianapolis, IN, USA), as described previously. Orthotopic XP258 tumors (derived from a patient with pT3aN0M1 clear cell RCC) were obtained from the UT Southwestern Kidney Cancer SPORE [53, 54] and maintained by serial passage. Tumors were induced by inserting tumor tissues from a donor tumor into the left kidney capsule of female NOD/SCID mice (Envigo).
as §1
We evaluated the longitudinal effects of OXi8007 alone and in combination with drugs currently favored for treating kidney cancer. For Renca-luc tumor-bearing mice, BLI was performed at least once a week to estimate tumor size, and mice were weighed weekly to adjust the dose as needed. Two treatment cohorts examined syngeneic orthotopic Renca-luc tumors in male BALB/c mice. Treatment started when the tumors reached about 1 × 10^6 photons/s peak total flux on BLI. The first cohort examined OXi8007 with cabozantinib. Mice were divided into four groups. Mice were assigned to groups as soon as there were sufficient to add the same numbers of animals to each group. The specific assignment was defined using the random number function in Excel. As such, each group included both faster- and slower-growing tumors. […]
On the technique in general: Xenograft models place foreign cells or tissue in a host animal.

Data set [4] deals with Renca-luc cells. Description: Renca-luc sulforhodamine B (SRB) assay, cell growth inhibition. Type of data set: cell-based. The settings on record: Mus musculus; Renca-luc cells, SRB, 48 h treatment; read-out: IC50. Here is the method: (§2) In two independent trials of Renca and Renca-luc cells were plated in triplicate at 8000 cells/well into 96-well plates and incubated for 24 h at 37 °C in a humidified incubator with 5% CO2 followed by a 48 h treatment period at ten-fold dilutions of the drug.
On the technique in general: In SRB staining, fixed cells bind dye roughly in proportion to their protein.

The test system of data set [5] is Renca cells. The data set can be described thus: Renca sulforhodamine B (SRB) assay, cell growth inhibition. As to conditions: Mus musculus; Renca cells, SRB, 48 h treatment; read-out: IC50. Type of data set: cell-based. As to the method: as §2

For the compound `COc1cc2nccc(Oc3ccc(NC(=O)C4(C(=O)Nc5ccc(F)cc5)CC4)cc3)c2cc1OC` [cabozantinib, reference compound], the Tumor size reduction in data set [1] was 50%. Moreover, the “Body weight versus untreated control mice” value in data set [2] (Renca-luc BALB/c mice, over course of treatment) was “significant weight loss”. In addition, the “Tumor growth delay (BLI)” value in data set [2] (Renca-luc, versus control) is on record as “significant tumor growth delay”. For the same compound, the Median survival time in data set [2] (Renca-luc, OXi8007 250 mg/kg IP twice weekly, cabozantinib 3 mg/kg oral daily) is reported as 64 days. Also, the Survival versus controls result in data set [3] was “significantly enhanced survival”.
For the compound `COc1ccc(/C=C\c2cc(OC)c(OC)c(OC)c2)cc1O` [CA4, combretastatin A-4, reference compound], the IC50 (in general, the concentration at which inhibition is half-maximal) in data set [4] worked out at 109 ± 23 nM; in data set [5], 48 ± 2 nM.
